Patent US8252807B2, “Methods of inhibiting the interaction between S100 and the receptor for advanced glycation end-products” (Board of Regents, The University of Texas System, priority 2007, dated 2012)

Key:
[1] = test system: MPanc-96 orthotopic tumors; experiment: Tumor growth and metastasis in scid mice, MPanc-96 orthotopic; assay type: in vivo; conditions: for liver metastasis, difference versus control / lung metastasis, difference versus control / tumor burden, difference versus control / lung metastasis, mean / liver metastasis, mean / tumor burden (primary tumor volume by bioluminescence), mean: MPanc-96; for lung metastasis, mean: control mean=5.9×10^7; for liver metastasis, mean: control mean=9.4×10^8; for tumor burden (primary tumor volume by bioluminescence), mean: end of six weeks, cromolyn 5 mg per kg daily i.p., gemcitabine 125 mg per kg bi-weekly i.p., control mean=1.1×10^10
Experimental: FIGS. 5A-5F show the effect of cromolyn on MPanc-96 tumor growth and metastasis in vivo. MPanc-96 cells stably expressing the firefly luciferase gene were injected orthotopically into 4-week-old male CB 17 scid mice. […] Mice were divided into four groups of five mice each with an equivalent mean tumor size between groups. […] One group was treated with water (control), one group received gemcitabine bi-weekly (125 mg per kg body weight bi-weekly by intraperitoneal injection), one group was administered cromolyn daily (5 mg per kg body weight daily by intraperitoneal injection), and the final group was given the combination of cromolyn and gemcitabine. All groups were treated for six weeks. Bioluminescent imaging was done weekly to assess tumor growth. […] Means and 95% confidence intervals from two independent experiments are shown (n=20). Two-tailed two-sample (unpaired) Student's t-tests were used to determine P values. The anti-tumorigenic capability of the drug cromolyn was assessed in 4-week-old male CB 17 scid mice (n=20) carrying orthopic tumors of BxPC-3, MPanc96, and Panc-1 cells stably expressing a Lenti-luc reporter. All mouse experiments were reviewed and approved by the Institutional Animal Care and Use Committee of UT MD Anderson Cancer Center. All mice were maintained in a sterile environment. Cages, bedding, food, and water were all autoclaved. All mice were maintained on a daily 12-hour light/12-hour dark cycle, according to the institutional animal welfare guidelines. BxPC-3, MPanc96, and Panc-1 cells carrying the Lenti-luc reporter gene were grown to 80% confluence, harvested by incubation with trypsin-EDTA, washed twice in PBS, and resuspended to a final concentration of 4.0×10^6 cells/mL. Each mouse (n=20 mice per cell line) was injected (into the pancreas) with cell suspensions (50 μL). […] This initial tumor volume was used to divide the mice into four groups of five mice each, such that the mean tumor size was equal between groups (FIGS. 4A, 5A, and 6A). To allow enough time to observe differences among treatment groups, the mice were followed for the next 5 weeks. One group of mice was then treated biweekly with a sub-maximal concentration of gemcitabine (125 mg per kg body weight by i.p. injection). A second group was treated with a daily injection of cromolyn (5 mg per kg body weight by i.p. injection). A third group was treated with both bi-weekly gemcitabine and daily cromolyn. The control group was treated daily with vehicle. Treatments were continued for 5 weeks, and the effects on the tumor burden and metastasis were analyzed by weekly bioluminescence imaging (FIGS. 4B, 5B, and 6B). At the end of the experiment the mice were anesthetized with 1.5% isofluorane/air mixture and killed by cervical dislocation. […] Before imaging, mice were placed in an acrylic chamber, anesthetized with 1.5% isofluorane/air mixture, and injected i.p. with 15 mg/mL of luciferin potassium salt in PBS at a dose of 150 mg per kg body weight. A digital grey scale image of each mouse was acquired, followed by acquisition and overlay of a pseudocolor image representing the spatial distribution of detected photons emerging from active luciferase within the mouse. Tumor volume was quantified as the sum of all detected photons within the region of the tumor per second. At the end of experiment, the mice were killed, and tumors were surgically removed and weighed. After the primary tumors were removed, cancer cell dissemination and metastasis was visualized using IVIS imaging, and metastatic colonies were counted. Subsequently, tissues were fixed with formaldehyde, and histology was used to verify the accuracy of the bioluminescence data.

Panc-1 orthotopic tumors = experiment: Tumor growth and metastasis in scid mice, Panc-1 orthotopic; assay type: in vivo; conditions: for effect on liver or lung metastasis: Panc-1
Experimental: FIGS. 6A-6F show the effect of cromolyn on Panc-1 tumor growth and metastasis in vivo. Panc-1 cells stably expressing the firefly luciferase gene were injected orthotopically into 4-week-old male CB 17 scid mice. […] Mice were divided into four groups of five mice each with an equivalent mean tumor size between groups. […] One group was treated with water (control), one group received gemcitabine bi-weekly (125 mg per kg body weight bi-weekly by intraperitoneal injection), one group was administered cromolyn daily (5 mg per kg body weight daily by intraperitoneal injection), and the final group was given the combination of cromolyn and gemcitabine. All groups were treated for six weeks. Bioluminescent imaging was done weekly to assess tumor growth. […] Means and 95% confidence intervals from two independent experiments are shown (n=20). Two-tailed two-sample (unpaired) Student's t-tests were used to determine P values.
The anti-tumorigenic capability of the drug cromolyn was assessed in 4-week-old male CB 17 scid mice (n=20) carrying orthopic tumors of BxPC-3, MPanc96, and Panc-1 cells stably expressing a Lenti-luc reporter. All mouse experiments were reviewed and approved by the Institutional Animal Care and Use Committee of UT MD Anderson Cancer Center. All mice were maintained in a sterile environment. Cages, bedding, food, and water were all autoclaved. All mice were maintained on a daily 12-hour light/12-hour dark cycle, according to the institutional animal welfare guidelines.
BxPC-3, MPanc96, and Panc-1 cells carrying the Lenti-luc reporter gene were grown to 80% confluence, harvested by incubation with trypsin-EDTA, washed twice in PBS, and resuspended to a final concentration of 4.0×10^6 cells/mL. Each mouse (n=20 mice per cell line) was injected (into the pancreas) with cell suspensions (50 μL). Bioluminescent imaging to determine tumor volume was performed 1 week after injection because the tumors became established within this amount of time. This initial tumor volume was used to divide the mice into four groups of five mice each, such that the mean tumor size was equal between groups (FIGS. 4A, 5A, and 6A). To allow enough time to observe differences among treatment groups, the mice were followed for the next 5 weeks. One group of mice was then treated biweekly with a sub-maximal concentration of gemcitabine (125 mg per kg body weight by i.p. injection). A second group was treated with a daily injection of cromolyn (5 mg per kg body weight by i.p. injection). A third group was treated with both bi-weekly gemcitabine and daily cromolyn. The control group was treated daily with vehicle. Treatments were continued for 5 weeks, and the effects on the tumor burden and metastasis were analyzed by weekly bioluminescence imaging (FIGS. 4B, 5B, and 6B). At the end of the experiment the mice were anesthetized with 1.5% isofluorane/air mixture and killed by cervical dislocation.
Bioluminescence imaging was conducted using a cryogenically cooled IVIS 100 imaging system coupled to a data acquisition computer running Living Image software (Xenogen Corp., Alameda, Calif.). Before imaging, mice were placed in an acrylic chamber, anesthetized with 1.5% isofluorane/air mixture, and injected i.p. with 15 mg/mL of luciferin potassium salt in PBS at a dose of 150 mg per kg body weight. A digital grey scale image of each mouse was acquired, followed by acquisition and overlay of a pseudocolor image representing the spatial distribution of detected photons emerging from active luciferase within the mouse. Tumor volume was quantified as the sum of all detected photons within the region of the tumor per second. At the end of experiment, the mice were killed, and tumors were surgically removed and weighed. After the primary tumors were removed, cancer cell dissemination and metastasis was visualized using IVIS imaging, and metastatic colonies were counted. […]

SMILES	liver metastasis, difference versus control [1]	lung metastasis, difference versus control [1]	tumor burden, difference versus control [1]	lung metastasis, mean [1]	liver metastasis, mean [1]	tumor burden (primary tumor volume by bioluminescence), mean [1]	effect on body weight ([1]; MPanc-96 model, up to 6 weeks)	effect on liver or lung metastasis (Panc-1 orthotopic tumors)	effect on body weight (Panc-1 orthotopic tumors; Panc-1 model, up to 6 weeks)	tumor development in Panc-1 model (Panc-1 orthotopic tumors; cromolyn 5 mg per kg daily i.p., alone or with gemcitabine)	body weight, difference versus control (Panc-1 orthotopic tumors; Panc-1 model) [g]	body weight at the end of the experiment, mean (Panc-1 orthotopic tumors; Panc-1 model, control mean=32.0 g) [g]
O=C(O)c1cc(=O)c2c(OCC(O)COc3cccc4oc(C(=O)O)cc(=O)c34)cccc2o1 [cromolyn, disodium 1,3-bis[(2′-carboxylatochromon-5′-yl)oxy]-2-hydroxypropane]	7.2×10^8 photons/sec	5.6×10^7 photons/sec	6.2×10^9 photons/sec	3.2×10^6 photons/sec	2.2×10^8 photons/sec	4.8×10^9 photons/sec	no effect on body weight	neither cromolyn nor gemcitabine nor the combination reduced liver or lung metastasis	no effect on body weight	did not reduce tumor development or increase the effectiveness of gemcitabine		
Nc1ccn([C@@H]2O[C@H](CO)[C@@H](O)C2(F)F)c(=O)n1 [gemcitabine]	8.1×10^8 photons/sec	5.4×10^7 photons/sec	6.9×10^9 photons/sec	5.0×10^6 photons/sec	1.2×10^8 photons/sec	4.1×10^9 photons/sec		neither cromolyn nor gemcitabine nor the combination reduced liver or lung metastasis			4.8	27.2
